Assay results: USRE37556E1, “Superoxide radical inhibitor” (Otsuka Pharmaceutical Co., Ltd., priority 1990, dated 2002)
Where a name gives a salt, the structure may show the parent alone.

System: human neutrophilic leukocytes
Assay: Inhibition of superoxide radical (O2-) generation in FMLP-stimulated human neutrophilic leukocytes (ferricytochrome C method)
Type: cell-based
Description: (1) Activity for inhibiting the generation of superoxide radical (O2^−) in human neutrophilic leukocytes
That is, a whole blood obtained from a healthy adult and treated by anticoagulation method was subjected to a dextranhypotonic treatment to obtain leukocyte cells. The leukocyte cells were then subjected to a density gradient ultracentrifugation by Ficoll-Paque to obtain a neutrophilic leukocyte fraction.
O2^− generation was examined by the ferricytochrome C method in accordance with the method of B. N. Cronstein et al. [Journal of Experimental Medicine, vol. […] Each test compound was dissolved in dimethyl sulfoxide (DMSO); the solution was added to neutrophilic leukocytes before the addition of FMLP; then, the neutrophilic leukocytes were pre-incubated at 37° C.

[1] = Homo sapiens, Leukocyte, pH 7.4, Table 15, O2- generation, 3x10^-7 M FMLP, cytochalasin B, 37° C., pH 7.4
[2] = Homo sapiens, Leukocyte, Table 16, comparative test present compounds vs prior art compounds, NE = not effective
[3] = Table 15, O2- generation, 3x10^-7 M FMLP, cytochalasin B, 37° C., pH 7.4

| IC50 [1] | Compound | other results |
| --- | --- | --- |
| 1000 nM | COc1ccc(C(=O)c2nc(-c3ccc4c(c3)CCC(=O)N4)cs2)cc1OC [compound 58, 2-(3,4-Dimethoxybenzoyl)-4-(3,4-dihydrocarbostyril-6-yl)thiazole] | – |
| 24 nM | CCOc1ccc(-c2nc(-c3ccc(C(=O)O)[nH]3)cs2)cc1OCC [compound 119, 2-(3,4-Diethoxyphenyl)-4-(2-carboxy-5-pyrrolyl)-thiazole] | – |
| 35 nM | CCOc1ccc(-c2nc(-c3ccc(C(=O)O)nc3)cs2)cc1OCC [compound 144, 2-(3,4-Diethoxyphenyl)-4-(2-carboxy-5-pyridyl)-thiazole] | – |
| 200 nM | COc1ccc(-c2nc(-c3c(O)cc(O)cc3O)cs2)cc1OC [compound 70, 4-(2,4,6-Trihydroxyphenyl)-2-(3,4-dimethoxyphenyl) thiazole] | – |
| 80 nM | CCCOc1cc(-c2nc(-c3ccc4c(c3)CCC(=O)N4)cs2)ccc1OC [compound 68, 4-(3,4-Dihydrocarbostyril-6-yl)-2-(4-methoxy-3-propoxy-phenyl)thiazole] | – |
| – | CCOc1ccc(-c2nc(-c3cc(O)cc(C(=O)O)c3)cs2)cc1OCC [compound 110, 4-(3-Carboxy-5-hydroxyphenyl)-2-(3,4-diethoxyphenyl)thiazole, reference compound] | IC50 [2]: 660 nM |
| 130 nM | CCOc1ccc(-c2nc(-c3ccc(OCC)c(C(=O)O)c3)cs2)cc1OCC [compound 134, 2-(3,4-Diethoxyphenyl)-4-(4-ethoxy-3-carboxyphenyl)thiazole] | – |
| 60 nM | CCOc1ccc(-c2nc(-c3ccc(O)c(N)c3)cs2)cc1OCC [compound 66, 4-(4-Hydroxy-3-aminophenyl)-2-(3,4-diethoxyphenyl)thiazole dihydrochloride] | – |
| 94 nM | CCOc1ccc(-c2nc(-c3cnc(C)c(C(=O)O)c3)cs2)cc1OCC [compound 141, 2-(3,4-Diethoxyphenyl)-4-(2-methyl-3-carboxy-5-pyridyl)thiazole] | – |
| – | CCOc1cc(-c2nc(-c3ccc(O)c(C(=O)O)c3)cs2)ccc1OC [compound 92, 4-(3-Carboxy-4-hydroxyphenyl)-2-(3-ethoxy-4-methoxyphenyl)thiazole] | IC50 [2]: 20 nM |
| 40 nM | CCOc1ccc(-c2nc(-c3ccc(O)cc3)cs2)cc1OCC [compound 64, 4-(4-Hydroxyphenyl)-2-(3,4-diethoxyphenyl)thiazole] | – |
| 110 nM | CCOc1ccc(-c2nc(-c3ccc(N(C)C)c(C(=O)O)c3)cs2)cc1OCC [compound 146, 2-(3,4-Diethoxyphenyl)-4-(3-carboxy-4-dimethylaminophenyl)thiazole] | – |
| 110 nM | CCOc1ccc(-c2nc(-c3cc(Br)c(O)c(C(=O)O)c3)cs2)cc1OCC [compound 145, 2-(3,4-Diethoxyphenyl)-4-(3-carboxy-4-hydroxy-5-bromophenyl)thiazole] | – |
| 720 nM | CCOc1ccc(-c2nc(-c3ccc(O)c(C(=O)O)c3)c(C)s2)cc1OCC [compound 99, 4-(3-Carboxy-4-hydroxyphenyl)-2-(3,4-diethoxyphenyl)-5-methylthiazole] | – |
| 460 nM | CCOc1ccc(-c2nc(-c3ccc(NCCN4CCCCC4)c(C(=O)OC)c3)cs2)cc1OCC [compound 117, 2-(3,4-Diethoxyphenyl)-4-{3-methoxycarbonyl-4-[2-(1-piperidinyl)ethylamino]phenyl}thiazole dihydrochloride] | – |
| – | CCOc1ccc(-c2nc(-c3cccc(CO)n3)cs2)cc1OCC [compound 127] | IC50 [3]: 20 nM |
| – | COC(=O)C1OC(Oc2ccc(-c3csc(-c4ccc(OC)c(OC)c4)n3)cc2)C(O)C(O)C1O [compound 77, Methyl 4-[2-(3,4-dimethoxyphenyl)thiazole-4-yl]phenyl-β-D-glucopyranosidouronate] | IC50 [3]: 800 nM |
| 69 nM | CCOc1ccc(-c2nc(-c3cc(C(=O)OC)cc(N)c3O)cs2)cc1OCC [compound 102, 4-(3-Methoxycarbonyl-5-amino-6-hydroxyphenyl)-2-(3,4-diethoxyphenyl)thiazole] | – |
| 100 nM | CCOc1ccc(-c2nc(-c3ccc(O)c(C(=O)O)c3)cs2)cc1OC [compound 88, 4-(3-Carboxy-4-hydroxyphenyl)-2-(3-methoxy-4-ethoxyphenyl)thiazole] | IC50 [2]: 100 nM |
| 70 nM | CCOc1ccc(-c2nc(-c3ccc(C#N)cc3)cs2)cc1OCC [compound 67, 4-(4-Cyanophenyl)-2-(3,4-diethoxyphenyl)thiazole] | – |
| 4.7 nM | CC=Cc1cc(-c2csc(-c3ccc(OCC)c(OCC)c3)n2)cc(C(=O)O)c1O [compound 140, 2-(3,4-Diethoxyphenyl)-4-[3-carboxy-4-hydroxy-5-(1-propenyl)phenyl]thiazole] | – |
| 38 nM | CCOc1ccc(-c2nc(-c3ccc(C(=O)OC)o3)cs2)cc1OCC [compound 121, 2-(3,4-Diethoxyphenyl)-4-(2-methoxycarbonyl-5-furyl)thiazole] | – |

| IC50 [1] | Compound | other results |
| --- | --- | --- |
| 300 nM | COc1ccc(-c2nc(-c3ccc4[nH]c(=O)c(=O)[nH]c4c3)cs2)cc1OC [compound 57, 2-(3,4-Dimethoxyphenyl)-4-(2,3-dioxo-1,2,3,4-tetrahydro-quinoxalin-6-yl)thiazole] | – |
| 19 nM | CCOc1ccc(-c2nc(-c3ccc(C(=O)O)o3)cs2)cc1OCC [compound 122, 2-(3,4-Diethoxyphenyl)-4-(2-carboxy-5-furyl)-thiazole] | – |
| 35 nM | CCOc1ccc(-c2nc(-c3cncc(C(=O)O)c3)cs2)cc1OCC [compound 135, 2-(3,4-Diethoxyphenyl)-4-(3-carboxy-5-pyridyl)-thiazole hydrochloride] | – |
| 9.2 nM | CCOc1ccc(-c2nc(-c3ccc(O)c(CO)c3)cs2)cc1OCC [compound 133, 2-(3,4-Diethoxyphenyl)-4-(4-hydroxy-3-hydroxymethylphenyl)thiazole] | – |
| 50 nM | COc1ccc(-c2nc(-c3ccccn3)cs2)cc1OC [compound 60, 2-(3,4-Dimethoxyphenyl)-4-(2-pyridyl)thiazole hydrochloride] | – |
| 10 nM | CCOc1ccc(-c2nc(-c3ccc(O)c(C(=O)OC)c3)cs2)cc1OCC [compound 80, 4-(4-Hydroxy-3-methoxycarbonylphenyl)-2-(3,4-diethoxyphenyl)thiazole] | – |
| 300 nM | CCN1CCN(c2cc(-c3csc(-c4ccc(O)c(O)c4)n3)ccc2OC)CC1 [compound 74, 4-[4-Methoxy-3-(4-ethyl-1-piperazinyl)phenyl]-2-(3,4-dihydroxyphenyl)thiazole trihydrochloride] | – |
| 82 nM | CCOc1ccc(-c2nc(-c3ccc(C(=O)O)s3)cs2)cc1OCC [compound 129, 2-(3,4-Diethoxyphenyl)-4-(2-carboxy-5-thienyl)-thiazole] | – |
| 30 nM | COc1ccc(-c2nc(-c3ccc(OS(=O)(=O)O)cc3)cs2)cc1OC [compound 63, 4-(4-Hydroxysulfonyloxyphenyl)-2-(3,4-dimethoxyphenyl)thiazole] | – |
| 190 nM | CCOC(=O)c1csc(-c2csc(-c3ccc(OCC)c(OCC)c3)n2)n1 [compound 131, 2-(3,4-Diethoxyphenyl)-4-(4-ethoxycarbonyl-2-thiazolyl)thiazole] | – |
| – | CCCCOc1ccc(-c2nc(-c3ccc(O)c(C(=O)O)c3)cs2)cc1OCCCC [compound 111, 4-(3-Carboxy-4-hydroxyphenyl)-2-(3,4-dibutoxyphenyl)thiazole, reference compound] | IC50 [2]: 8300 nM |
| 120 nM | CCOc1ccc(-c2nc(-c3cc(C=O)c(O)c(C(=O)O)c3)cs2)cc1OCC [compound 142, 2-(3,4-Diethoxyphenyl)-4-(3-carboxy-4-hydroxy-5-formylphenyl)thiazole] | – |
| 94 nM | C=CCc1cc(C(=O)O)cc(-c2csc(-c3ccc(OCC)c(OCC)c3)n2)c1O [compound 103, 4-(3-Carboxy-5-allyl-6-hydroxyphenyl)-2-(3,4-diethoxy-phenyl)thiazole] | – |
| – | CCOc1ccc(-c2nc(-c3ccc(OC)c(C(=O)O)c3)cs2)cc1OCC [compound 125] | IC50 [3]: 190 nM |
| 10 nM | C=Cc1cc(-c2csc(-c3ccc(OCC)c(OCC)c3)n2)cc(C(=O)O)c1O [compound 147, 2-(3,4-Diethoxyphenyl)-4-(3-carboxy-4-hydroxy-5-vinylphenyl)thiazole] | – |
| 600 nM | CC(=O)Oc1ccc(-c2csc(-c3cccnc3)n2)cc1OC(C)=O [compound 76, 4-(3,4-Diacetyloxyphenyl)-2-(3-pyridyl)thiazole] | – |
| 200 nM | CCOc1ccc(-c2nc(C(O)c3ccc(OC)c(OC)c3)cs2)cc1OCC (stereo not shown) [compound 73, 4-[1-Hydroxy-1-(3,4-dimethoxyphenyl)methyl]-2-(3,4-diethoxyphenyl)thiazole] | – |
| 20 nM | C=C(C)Cc1cc(-c2csc(-c3ccc(OCC)c(OCC)c3)n2)cc(C(=O)O)c1O [compound 84, 4-{3-Carboxy-4-hydroxy-5-(2-methyl-2-propenyl)-phenyl}-2-(3,4-diethoxyphenyl)thiazole] | – |
| 4.8 nM | CCOc1ccc(-c2nc(-c3cccc(C(=O)O)c3)cs2)cc1OCC [compound 87, 4-(3-Carboxyphenyl)-2-(3,4-diethoxyphenyl)thiazole] | IC50 [2]: 4.8 nM |
| 48 nM | CCOc1ccc(-c2nc(-c3cc(C(=O)O)c(O)cc3O)cs2)cc1OCC [compound 100, 4-(3-Carboxy-4,6-dihydroxyphenyl)-2-(3,4-diethoxyphenyl)thiazole] | – |
| – | Fc1ccc(-c2csc(-c3cccnc3)n2)cc1.Fc1ccc(-c2csc(-c3cccnc3)n2)cc1.Fc1ccc(-c2csc(-c3cccnc3)n2)cc1.[Cl][Fe][Cl] [compound 56, 2-(3-Pyridyl)-4-(4-fluorophenyl)thiazole-⅓ FeCl2 salt] | IC50 [3]: 1000 nM |

| Compound | IC50 [1] | other results |
| --- | --- | --- |
| CCCCOc1ccc(-c2csc(-c3ccc(OCC)c(OCC)c3)n2)cc1C(=O)O [compound 137, 2-(3,4-Diethoxyphenyl)-4-(3-carboxy-4-n-butoxyphenyl)thiazole] | 110 nM | – |
